The results in this text go back to patent US12466849B2, “Anti-viral and anti-tumoral compounds” (YEDA RESEARCH AND DEVELOPMENT CO. LTD, priority 2020, dated 2025).

The test system of series [1] is HCMV AD169. In words: HCMV plaque reduction assay, MRC-5 cells, strain AD169. Type of series: cell-based, Human cytomegalovirus. Conditions: hCMV AD169, MRC5 cells, plaque assay, 6-days duration.
The subject of series [2] is HFF cells. In words: Cell proliferation assay, human foreskin fibroblast (HFF) cells. Type of series: cell-based. To be noted: 72 h, cell number.
Series [3] deals with BK virus (BKV), Gardner strain.
The test system of series [4] is Human cytomegalovirus (HCMV), strain AD169. To be noted: for EC50 / EC90: drug concentration 0.048-150 μM.
Series [5] concerns MRC-5 cells.
For series [6], the system named is MOLT-3 cells.
Series [7] concerns JC virus (JCV).
In series [8] the test system is JC virus (JCV). In words: Secondary JCV assay (qPCR), COS7 cells. To be noted: secondary JCV assay, COS7 cells; for EC50 / EC90: 7 days, qPCR, test drug concentration 0.001-100 μM; for Activity: class by SI50.
Series [9] concerns the target T1, SARS-Cov2 RdRp (nsp12-nsp7-nsp8) (Severe acute respiratory syndrome coronavirus 2, UniProt P0DTD1). Type of series: biochemical. To be noted: primer extension; analog at 100 uM, printed 100 mM.
Series [10] concerns the target T1, SARS-Cov2 RdRp (nsp12-nsp7-nsp8). The format is biochemical. Conditions: after addition of GTP and CTP (third and fourth nucleotides).
In series [11] the target is mitochondrial DNA polymerase (POLG1) (Homo sapiens, UniProt P54098). In words: Inhibition of mitochondrial DNA polymerase (POLG1).
Series [12] concerns the target T2, Inosine-5′-Monophosphate Dehydrogenase 2 (IMPDH2) (Homo sapiens, UniProt P12268).
T2 construct: purchased BioVision (California, USA)
In words: IMPDH inhibitor screening assay (BioVision kit). Type of series: biochemical. Conditions: IMPDH activity, colorimetric OD 450 nm.

Series [13] relates to adenovirus-5 (Ad5).
Series [14] concerns TCRV.
Series [15] concerns Rift Valley fever virus (RVFV).
Series [16] concerns SARS-CoV.
Series [17] relates to SARS-CoV-2. Conditions: SARS-CoV-2; SI = CC50/EC50.
The subject of series [18] is dengue virus-2 (DV-2). To be noted: DV-2; SI = CC50/EC50.
Series [19] has as its system Japanese encephalitis virus (JEV).
Series [20] concerns Powassan virus (POWV). To be noted: POWV; SI = CC50/EC50.
The test system of series [21] is West Nile virus (WNV).
Series [22] relates to Yellow fever virus (YFV).
Series [23] concerns Venezuelan equine encephalitis virus (VEEV).
The test system of series [24] is Zika virus.
Series [25] concerns influenza A(H1N1).
The subject of series [26] is influenza A(H5N1).
Series [27] relates to Influenza B.
The subject of series [28] is RSV.
Series [29] deals with poliovirus-1 (POV-1).
Series [30] concerns enterovirus-68 (EV-68).
The nature of series [31]: in vitro. To be noted: African green monkey.
A short description of series [32]: in vitro. To be noted: human.
A short description of series [33]: in vitro. Conditions: Syrian hamster.
Series [34] has as its system adenovirus-5 (Ad5). Briefly: organism not typed. To be noted: A549.
In series [35] the test system is poliovirus-1 (POV-1). In words: organism not typed. To be noted: Vero 76.
Series [36] has as its system enterovirus-68 (EV-68). In words: organism not typed. Conditions: RD.
In series [37] the test system is TCRV. In words: microbe, parasite or virus in culture. Conditions: Mammarenavirus tacaribeense, Vero C1008.
In series [38] the test system is Rift Valley fever virus (RVFV). In words: microbe, parasite or virus in culture. Conditions: Vero 76.
Series [39] relates to SARS-CoV. Briefly: microbe, parasite or virus in culture. Conditions: Severe acute respiratory syndrome coronavirus, Vero 76.
The subject of series [40] is SARS-CoV-2. Briefly: microbe, parasite or virus in culture. Conditions: Severe acute respiratory syndrome coronavirus 2, Vero 76.
The subject of series [41] is dengue virus-2 (DV-2). In words: microbe, parasite or virus in culture. Conditions: Huh-7.
Series [42] relates to Japanese encephalitis virus (JEV). In words: microbe, parasite or virus in culture. To be noted: Vero 76.
For series [43], the system named is Powassan virus (POWV). Briefly: microbe, parasite or virus in culture. To be noted: BHK-21.
Series [44] has as its system West Nile virus (WNV). Briefly: microbe, parasite or virus in culture. Conditions: Vero 76.
Series [45] deals with Yellow fever virus (YFV). Briefly: microbe, parasite or virus in culture. To be noted: Huh-7.
The subject of series [46] is Venezuelan equine encephalitis virus (VEEV). In words: microbe, parasite or virus in culture. Conditions: Vero 76.
Series [47] relates to Zika virus. Briefly: microbe, parasite or virus in culture. To be noted: Vero 76.
For series [48], the system named is influenza A(H1N1). Briefly: microbe, parasite or virus in culture. Conditions: H1N1, MDCK.
The test system of series [49] is influenza A(H5N1). In words: microbe, parasite or virus in culture. Conditions: H5N1, MDCK.
For series [50], the system named is Influenza B. Briefly: microbe, parasite or virus in culture. Conditions: MDCK.
The subject of series [51] is RSV. Briefly: microbe, parasite or virus in culture. Conditions: human respiratory syncytial virus, MA104.
The mark [52] stands for this setting: Vero 76 cells without virus, test compounds.

Sequence of mitochondrial DNA polymerase (POLG1) (P54098 whole entry): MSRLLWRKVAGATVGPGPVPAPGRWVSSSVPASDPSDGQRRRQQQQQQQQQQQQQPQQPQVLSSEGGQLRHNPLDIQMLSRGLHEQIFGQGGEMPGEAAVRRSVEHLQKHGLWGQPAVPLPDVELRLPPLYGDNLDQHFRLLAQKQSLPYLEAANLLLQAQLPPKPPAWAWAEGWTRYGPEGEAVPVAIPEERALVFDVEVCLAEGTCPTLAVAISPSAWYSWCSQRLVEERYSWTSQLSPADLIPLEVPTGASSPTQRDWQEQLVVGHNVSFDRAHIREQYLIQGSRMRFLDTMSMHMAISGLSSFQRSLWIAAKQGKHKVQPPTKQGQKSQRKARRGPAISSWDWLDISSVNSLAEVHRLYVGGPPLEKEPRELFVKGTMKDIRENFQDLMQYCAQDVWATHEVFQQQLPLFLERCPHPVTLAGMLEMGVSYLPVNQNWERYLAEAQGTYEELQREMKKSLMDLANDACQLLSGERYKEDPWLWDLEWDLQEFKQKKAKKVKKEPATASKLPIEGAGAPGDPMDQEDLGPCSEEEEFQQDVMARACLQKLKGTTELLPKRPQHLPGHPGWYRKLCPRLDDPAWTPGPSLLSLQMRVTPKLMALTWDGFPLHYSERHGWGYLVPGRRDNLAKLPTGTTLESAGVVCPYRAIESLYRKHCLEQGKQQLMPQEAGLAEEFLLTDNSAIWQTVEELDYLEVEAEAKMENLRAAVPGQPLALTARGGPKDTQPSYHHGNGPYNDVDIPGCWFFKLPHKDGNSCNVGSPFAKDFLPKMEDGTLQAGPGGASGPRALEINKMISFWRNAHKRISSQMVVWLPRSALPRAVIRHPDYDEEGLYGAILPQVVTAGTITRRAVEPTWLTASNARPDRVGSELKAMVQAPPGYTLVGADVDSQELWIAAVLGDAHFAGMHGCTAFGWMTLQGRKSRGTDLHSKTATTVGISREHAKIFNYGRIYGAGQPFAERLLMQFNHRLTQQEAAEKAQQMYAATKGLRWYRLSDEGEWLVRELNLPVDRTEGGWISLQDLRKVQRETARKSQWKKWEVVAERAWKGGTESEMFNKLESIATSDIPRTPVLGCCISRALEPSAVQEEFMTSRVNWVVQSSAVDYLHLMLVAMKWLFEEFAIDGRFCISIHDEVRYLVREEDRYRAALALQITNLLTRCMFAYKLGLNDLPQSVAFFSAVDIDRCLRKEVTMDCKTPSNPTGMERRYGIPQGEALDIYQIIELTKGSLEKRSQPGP

Consider `CCC(CC)COC(=O)[C@H](C)N[P@](=O)(OCC1=CC(O)C(n2ccc(=O)[nH]c2=O)O1)Oc1ccccc1` (stereo partly drawn) [AB23031], for which the EC50 in series [1] is more than 100 µM; in series [3] it was 5.12 µM; in series [4] it was 0.15 µM; in series [8] it was 93.8 µM. Also, in [2], the IC50 is more than 100 µM. Besides, the Activity result is “HI (key: NA (Not Active) SI50 = 0-3.9; LO (Slightly Active) SI50 = 4-9.9; MOD (Moderately Active) SI50 = 10-19.9; HI (Highly Active) SI50 = ≥20)” in [3], “HI (key: NA (Not Active) SI50 = 0-3.9; LO (Slightly Active) SI50 = 4-9.9; MOD (Moderately Active) SI50 = 10-19.9; HI (Highly Active) SI50 = ≥20)” in series [4] and “NA (NA (Not Active) SI50 = 0-3.9)” in series [8]. Also, the CC50 in series [3] was more than 150 µM; in series [4] it was more than 150 µM; in [5], more than 100 µM; in [6] it was 55.4 µM; in series [7], more than 100 µM. Also, the EC90 in [3] is more than 150 µM; in series [4], more than 150 µM; in series [8], more than 100 µM. Also, the “activity against BK virus (in words)” value in [3] is on record as “highly active”. In addition, the “activity against hCMV (in words)” value in series [4] is listed as “highly active”.

`O=c1ccn(C2OC(COP(=O)(O)OP(=O)(O)OP(=O)(O)O)=CC2O)c(=O)[nH]1` (stereo not drawn) [ddhUTP, 3′-deoxy-3,4-didehydro-UTP]: the “incorporation into RNA by SARS-Cov2 RdRp (in words)” value in series [9] was “incorporated onto RNA as UTP analog”. The “chain termination of RNA synthesis (in words)” value in series [10] is given as “caused chain termination of RNA synthesis”. Besides, the “substrate for POLG1 (in words)” value in series [11] is recorded as “poor substrates”.

For the molecule `CCC(CC)COC(=O)[C@H](C)N[P@](=O)(OCC1=CC(O)C(n2cnc3c(=O)[nH]c(N)nc32)O1)Oc1ccccc1` (stereo partly drawn) [AB23032], the EC50 in [1] was more than 100 µM; in [3], 77.2 µM; in series [4] it was more than 150 µM; in series [8], more than 100 µM. The values for the Activity entry in series [3], in [4] and in series [8] were “NA (key: NA (Not Active) SI50 = 0-3.9; MOD (Moderately Active) SI50 = 4-9.9; HI (Highly Active) SI50 = ≥10)”, “NA (key: NA (Not Active) SI50 = 0-3.9; MOD (Moderately Active) SI50 = 4-9.9; HI (Highly Active) SI50 = ≥10)” and “NA (NA (Not Active) SI50 = 0-3.9)”, respectively. In addition, the CC50 in series [3] is more than 150 µM; in series [4], more than 150 µM; in series [5], more than 100 µM; in series [7] it was more than 100 µM. Also, the EC90 in [3] is 149 µM; in series [4], more than 150 µM; in [8], more than 100 µM.

`NC(=O)c1ncn([C@@H]2O[C@H](COP(=O)(O)O)[C@@H](O)[C@H]2O)n1` [RMP, Ribavirin 5′-monophosphate] came in with a concentration for half-maximal inhibition (IC50) in series [12] of 2.6 ± 1.8 µM.

Regarding `Nc1ccn([C@@H]2OC(CO)=C[C@H]2O)c(=O)n1` [AB21650, 3′-deoxy-3′,4′-didehydro cytidine], the SI stood at 0 in series [13] (Ad5, SI = CC50/EC50); 0 in series [14] (TCRV, SI = CC50/EC50); 0 in [15] (RVFV, SI = CC50/EC50); 0 in series [16] (SARS-CoV, SI = CC50/EC50); 0 in [17]; 0 in series [18]. Moreover, the SI in [19] (JEV, SI = CC50/EC50) was 0; in series [20], 0; in [21] (WNV, SI = CC50/EC50), 0; in series [22] (YFV, SI = CC50/EC50), 0; in series [23] (VEEV, SI = CC50/EC50) it was 0; in series [24] (Zika, SI = CC50/EC50) it was 0. For the same molecule, the SI in series [25] (H1N1) stood at 0; in series [26] (influenza A(H5N1), SI = CC50/EC50), 0; in series [27] it was 0; in [28] (RSV, SI = CC50/EC50), 0; in [29] (POV-1, SI = CC50/EC50), 0; in [30] (EV-68, SI = CC50/EC50), 2. The CC50 in series [13] (human), in series [14] (African green monkey), in series [15] (setting [52]), in [16] (setting [52]), in series [19] (African green monkey) and in [21] (African green monkey) was more than 2000 µM in each case. Besides, the CC50 was more than 2000 µM in series [22] (Huh7 cells without virus, test compounds); more than 2000 µM in series [23] (setting [52]); more than 2000 µM in series [24] (African green monkey); more than 2000 µM in series [25] (dog); more than 2000 µM in series [26] (MDCK cells without virus, test compounds); more than 2000 µM in [27] (dog). The CC50 in [28] (African green monkey) was more than 2000 µM; in series [29] (setting [52]), more than 2000 µM; in series [30] (human) it was 1800 µM; in series [31], more than 2000 µM; in series [32], more than 2000 µM; in [33], more than 2000 µM. Further, the EC50 in series [34] is more than 2000 µM; in series [35] it was more than 2000 µM; in series [36] it was 910 µM; in [37], more than 2000 µM; in [38], more than 2000 µM; in [39], more than 2000 µM. Besides, the EC50 in series [40], in [41], in series [42], in series [43], in series [44] and in series [45] was more than 2000 µM in each case. The EC50 in series [46], in [47], in [48], in series [49], in series [50] and in series [51] was more than 2000 µM in each case.
